# Laboratory results reported in US10131652B2, “Pyrimidinyloxy benzene derivatives as herbicides” (E. I. DU PONT DE NEMOURS AND COMPANY, priority 2014, dated 2018).
# Where two headings read alike, the source gives them in different places.
# How the values were obtained:
# Format in all cases: in vivo
# [1] = tested on: blackgrass (Alopecurus myosuroides); assay: Test E pre-/postemergence plant response; details: scale 0 to 100, read-out: Plant response rating, Blackgrass; for pest or weed control at 16 g/ha: 16 g ai/ha; for pest or weed control at 31 g/ha: 31 g ai/ha; for pest or weed control at 62 g/ha: 62 g ai/ha; for pest or weed control at 125 g/ha: 125 g ai/ha
# Procedure, shortened: (§1)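 Pre-emergence: seeds sown in silt loam soil and sprayed with test chemicals in a non-phytotoxic solvent/surfactant mix. Post-emergence: plants at 2–18 cm (1- to 4-leaf stage) in peat/vermiculite medium treated with the same formulation. Visual rating versus controls after 7–21 days, 0 (no effect) to 100 (complete control).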
# [2] = tested on: galium (catchweed bedstraw, Galium aparine); assay: Test E pre-/postemergence plant response; details: scale 0 to 100, read-out: Plant response rating, Galium; for pest or weed control at 16 g/ha: 16 g ai/ha; for pest or weed control at 31 g/ha: 31 g ai/ha; for pest or weed control at 62 g/ha: 62 g ai/ha; for pest or weed control at 125 g/ha: 125 g ai/ha
# Procedure, shortened: as §1
# [3] = tested on: bluegrass (annual bluegrass, Poa annua); assay: Test E pre-/postemergence plant response; details: scale 0 to 100, read-out: Plant response rating, Bluegrass; for pest or weed control at 16 g/ha: 16 g ai/ha; for pest or weed control at 31 g/ha: 31 g ai/ha; for pest or weed control at 62 g/ha: 62 g ai/ha; for pest or weed control at 125 g/ha: 125 g ai/ha
# Procedure, shortened: as §1
# [4] = tested on: winter barley (Hordeum vulgare); assay: Test E pre-/postemergence plant response; details: scale 0 to 100, read-out: Plant response rating, Barley, Winter; for plant injury at 16 g/ha: 16 g ai/ha; for plant injury at 31 g/ha: 31 g ai/ha; for plant injury at 62 g/ha: 62 g ai/ha; for plant injury at 125 g/ha: 125 g ai/ha
# Procedure, shortened: as §1
# [5] = tested on: lambsquarters (Chenopodium album); assay: Test E pre-/postemergence plant response; details: scale 0 to 100, read-out: Plant response rating, Lambsquarters; for pest or weed control at 16 g/ha: 16 g ai/ha; for pest or weed control at 31 g/ha: 31 g ai/ha; for pest or weed control at 62 g/ha: 62 g ai/ha; for pest or weed control at 125 g/ha: 125 g ai/ha
# Procedure, shortened: as §1
# [6] = tested on: deadnettle (henbit deadnettle, Lamium amplexicaule); assay: Test E pre-/postemergence plant response; details: scale 0 to 100, read-out: Plant response rating, Deadnettle; for pest or weed control at 16 g/ha: 16 g ai/ha; for pest or weed control at 31 g/ha: 31 g ai/ha; for pest or weed control at 62 g/ha: 62 g ai/ha; for pest or weed control at 125 g/ha: 125 g ai/ha
# Procedure, shortened: as §1
# [7] = tested on: chamomile (scentless chamomile, Matricaria inodora); assay: Test E pre-/postemergence plant response; details: Tripleurospermum inodorum, scale 0 to 100, read-out: Plant response rating, Chamomile; for pest or weed control at 16 g/ha: 16 g ai/ha; for pest or weed control at 31 g/ha: 31 g ai/ha; for pest or weed control at 62 g/ha: 62 g ai/ha; for pest or weed control at 125 g/ha: 125 g ai/ha
# Procedure, shortened: as §1
# [8] = tested on: downy bromegrass (Bromus tectorum); assay: Test E pre-/postemergence plant response; details: scale 0 to 100, read-out: Plant response rating, Bromegrass, Downy; for pest or weed control at 16 g/ha: 16 g ai/ha; for pest or weed control at 31 g/ha: 31 g ai/ha; for pest or weed control at 62 g/ha: 62 g ai/ha; for pest or weed control at 125 g/ha: 125 g ai/ha
# Procedure, shortened: as §1
# Horseweed = assay: Test F postemergence plant response; details: scale 0 to 100
smiles,measurement,setting,value
"Fc1cccc(Oc2ncc(Br)cn2)c1-c1cc(C(F)F)no1 [Compound 145, 5-bromo-2-[2-[3-(difluoromethyl)-5-isoxazolyl]-3-fluorophenoxy]pyrimidine]",pest or weed control at 16 g/ha,"[1]; post-emergence, Postemergence",25%
same,pest or weed control at 31 g/ha,"[1]; post-emergence, Postemergence",35%
same,pest or weed control at 62 g/ha,"[1]; post-emergence, Postemergence",65%
same,pest or weed control at 125 g/ha,"[1]; post-emergence, Postemergence",80%
same,pest or weed control at 16 g/ha,"[1]; pre-emergence, Preemergence",10%
same,pest or weed control at 31 g/ha,"[1]; pre-emergence, Preemergence",50%
same,pest or weed control at 62 g/ha,"[1]; pre-emergence, Preemergence",60%
same,pest or weed control at 125 g/ha,"[1]; pre-emergence, Preemergence",75%
same,pest or weed control at 16 g/ha,"[2]; post-emergence, Postemergence",95%
same,pest or weed control at 31 g/ha,"[2]; post-emergence, Postemergence",95%
same,pest or weed control at 62 g/ha,"[2]; post-emergence, Postemergence",98%
same,pest or weed control at 125 g/ha,"[2]; post-emergence, Postemergence",100%
same,pest or weed control at 16 g/ha,"[2]; pre-emergence, Preemergence",25%
same,pest or weed control at 31 g/ha,"[2]; pre-emergence, Preemergence",100%
same,pest or weed control at 62 g/ha,"[2]; pre-emergence, Preemergence",100%
same,pest or weed control at 125 g/ha,"[2]; pre-emergence, Preemergence",100%
same,pest or weed control at 16 g/ha,"[3]; post-emergence, Postemergence",15%
same,pest or weed control at 31 g/ha,"[3]; post-emergence, Postemergence",60%
same,pest or weed control at 62 g/ha,"[3]; post-emergence, Postemergence",65%
same,pest or weed control at 125 g/ha,"[3]; post-emergence, Postemergence",70%
same,pest or weed control at 16 g/ha,"[3]; pre-emergence, Preemergence",0%
same,pest or weed control at 31 g/ha,"[3]; pre-emergence, Preemergence",0%
same,pest or weed control at 62 g/ha,"[3]; pre-emergence, Preemergence",10%
same,pest or weed control at 125 g/ha,"[3]; pre-emergence, Preemergence",90%
same,plant injury at 16 g/ha,"[4]; post-emergence, Postemergence",15%
same,plant injury at 31 g/ha,"[4]; post-emergence, Postemergence",15%
same,plant injury at 62 g/ha,"[4]; post-emergence, Postemergence",30%
same,plant injury at 125 g/ha,"[4]; post-emergence, Postemergence",40%
same,plant injury at 16 g/ha,"[4]; pre-emergence, Preemergence",10%
same,plant injury at 31 g/ha,"[4]; pre-emergence, Preemergence",15%
same,plant injury at 62 g/ha,"[4]; pre-emergence, Preemergence",30%
same,plant injury at 125 g/ha,"[4]; pre-emergence, Preemergence",85%
same,pest or weed control at 16 g/ha,"[5]; post-emergence, Postemergence",90%
same,pest or weed control at 31 g/ha,"[5]; post-emergence, Postemergence",90%
same,pest or weed control at 62 g/ha,"[5]; post-emergence, Postemergence",95%
same,pest or weed control at 125 g/ha,"[5]; post-emergence, Postemergence",95%
same,pest or weed control at 16 g/ha,"[5]; pre-emergence, Preemergence",100%
same,pest or weed control at 31 g/ha,"[5]; pre-emergence, Preemergence",100%
same,pest or weed control at 62 g/ha,"[5]; pre-emergence, Preemergence",100%
same,pest or weed control at 125 g/ha,"[5]; pre-emergence, Preemergence",100%
same,pest or weed control at 16 g/ha,"[6]; post-emergence, Postemergence",100%
same,pest or weed control at 31 g/ha,"[6]; post-emergence, Postemergence",100%
same,pest or weed control at 62 g/ha,"[6]; post-emergence, Postemergence",100%
same,pest or weed control at 125 g/ha,"[6]; post-emergence, Postemergence",100%
same,pest or weed control at 16 g/ha,"[6]; pre-emergence, Preemergence",0%
same,pest or weed control at 31 g/ha,"[6]; pre-emergence, Preemergence",100%
same,pest or weed control at 62 g/ha,"[6]; pre-emergence, Preemergence",100%
same,pest or weed control at 125 g/ha,"[6]; pre-emergence, Preemergence",100%
same,pest or weed control at 16 g/ha,"[7]; post-emergence, Postemergence",20%
same,pest or weed control at 31 g/ha,"[7]; post-emergence, Postemergence",30%
same,pest or weed control at 62 g/ha,"[7]; post-emergence, Postemergence",30%
same,pest or weed control at 125 g/ha,"[7]; post-emergence, Postemergence",30%
same,pest or weed control at 16 g/ha,"[7]; pre-emergence, Preemergence",5%
same,pest or weed control at 31 g/ha,"[7]; pre-emergence, Preemergence",100%
same,pest or weed control at 62 g/ha,"[7]; pre-emergence, Preemergence",100%
same,pest or weed control at 125 g/ha,"[7]; pre-emergence, Preemergence",100%
same,pest or weed control at 16 g/ha,"[8]; post-emergence, Postemergence",25%
same,pest or weed control at 31 g/ha,"[8]; post-emergence, Postemergence",35%
same,pest or weed control at 62 g/ha,"[8]; post-emergence, Postemergence",55%
same,pest or weed control at 125 g/ha,"[8]; post-emergence, Postemergence",55%
same,pest or weed control at 16 g/ha,"[8]; pre-emergence, Preemergence",10%
same,pest or weed control at 31 g/ha,"[8]; pre-emergence, Preemergence",20%
same,pest or weed control at 62 g/ha,"[8]; pre-emergence, Preemergence",35%
same,pest or weed control at 125 g/ha,"[8]; pre-emergence, Preemergence",60%
same,"Plant response rating, Horseweed",Horseweed; 16 g ai/ha Postemergence,0
same,"Plant response rating, Horseweed",Horseweed; 31 g ai/ha Postemergence,20
same,"Plant response rating, Horseweed",Horseweed; 62 g ai/ha Postemergence,20
same,"Plant response rating, Horseweed",Horseweed; 125 g ai/ha Postemergence,40
